Measured values published in ChEMBL document CHEMBL1155104, “Gallic acid-based indanone derivatives as anticancer agents” (Bioorg Med Chem Lett, 2008).

What was measured:
[1] = system: MCF7; assay: Cytotoxicity against human MCF7 cells after 24 hrs by MTT assay; format: functional, cell-based; conditions: MCF7, 24 h
[2] = system: HepG2; assay: Cytotoxicity against human HEPG2 cells after 24 hrs by MTT assay; format: functional, cell-based; conditions: HepG2, 24 h
[3] = Cytotoxicity against human KB403 cells after 24 hrs by MTT assay; format: functional, cell-based; conditions: KB403, 24 h
[4] = system: WRL68; assay: Cytotoxicity against human WRL68 cells after 24 hrs by MTT assay; format: functional, cell-based; conditions: WRL68, 24 h
[5] = system: Caco-2; assay: Cytotoxicity against human CaCO2 cells after 24 hrs by MTT assay; format: functional, cell-based; conditions: Caco-2, 24 h
[6] = Toxicity in human erythrocytes assessed as osmotic hemolysis; format: cell-based; conditions: erythrocyte
[7] = Toxicity in human erythrocytes assessed as osmotic hemolysis at 258 uM; format: cell-based; conditions: erythrocyte

With COc1cc(C2C/C(=N\O)c3cc(OC)c(OC)c(OC)c32)cc(OC)c1OC (centres undefined) the IC50 [1] was ≥ 250 µM, the IC50 [2] was 124 µM and the IC50 [3] was 136 µM. For the same compound, the IC50 [4] was 223 µM and the IC50 [5] was 49.6 µM.
In the case of COc1cccc(C2CC(=O)c3cc(OC)c(OC)c(OC)c32)c1 (centres undefined), the IC50 [1] is reported as ≥ 250 µM, the IC50 [2] is reported as ≥ 250 µM and the IC50 [3] is reported as ≥ 250 µM. For the same compound, the IC50 [4] was ≥ 250 µM and the IC50 [5] was ≥ 250 µM.
COc1cc(C2CC(O)c3cc(OC)c(OC)c(OC)c32)cc(OC)c1OC (centres undefined) showed an IC50 [1] of 244 µM, an IC50 [2] of 102 µM and an IC50 [3] of 192 µM. It also gave an IC50 [4] of 192 µM and an IC50 [5] of 6.4 µM.
For COc1cc2c(cc1OC)C(c1cc(OC)c(OC)c(OC)c1)CC2=O (centres undefined), the IC50 [1] was ≥ 250 µM, the IC50 [2] was 112 µM and the IC50 [3] was 140 µM. For the same compound, the IC50 [4] was 196 µM and the IC50 [5] was 140 µM.
In the case of COc1cc(C2=C(O)C(=O)c3cc(OC)c(OC)c(OC)c32)cc(OC)c1OC, the IC50 [1] is reported as ≥ 250 µM, the IC50 [2] is reported as 74.6 µM and the IC50 [3] is reported as ≥ 250 µM. For the same compound, the IC50 [4] was 124 µM and the IC50 [5] was ≥ 250 µM.
With COc1cc2c(c(OC)c1OC)C(c1ccccc1)CC2=O (centres undefined) the Activity [6] was “Toxic”, the IC50 [1] was ≥ 250 µM and the IC50 [2] was 188 µM. For the same compound, the IC50 [3] was 0.84 µM, the IC50 [4] was ≥ 250 µM and the IC50 [5] was ≥ 250 µM.
With COc1ccc(C2CC(=O)c3cc(OC)c(OC)c(OC)c32)c(OC)c1OC (centres undefined) the Activity [6] was “Toxic”, the IC50 [1] was ≥ 250 µM and the IC50 [2] was ≥ 250 µM. It also gave an IC50 [3] of 1.54 µM, an IC50 [4] of 0.023 µM and an IC50 [5] of 206 µM.
For CC(=O)O[C@H]1C(=O)[C@@]2(C)[C@H]([C@H](OC(=O)c3ccccc3)[C@]3(O)C[C@H](OC(=O)[C@H](O)[C@@H](NC(=O)c4ccccc4)c4ccccc4)C(C)=C1C3(C)C)[C@]1(OC(C)=O)CO[C@@H]1C[C@@H]2O [PACLITAXEL], the IC50 [1] was 0.006 µM, the IC50 [2] was 0.009 µM and the IC50 [3] was 0.001 µM. The IC50 [4] was 0.004 µM and the IC50 [5] was 0.008 µM.
With COc1cc(C2CC(=O)c3cc(OC)c(OC)c(OC)c32)cc(OC)c1OC (centres undefined) the IC50 [1] was 2.2 µM, the IC50 [2] was 9 µM and the Activity [7] was “Non-toxic”. For the same compound, the IC50 [3] was 10.3 µM, the IC50 [4] was 12.8 µM and the IC50 [5] was ≥ 250 µM.
COc1cc([C@@H]2c3cc4c(cc3[C@H](O)[C@H]3COC(=O)[C@H]23)OCO4)cc(OC)c1OC [PODOFILOX] gave an IC50 [1] of 8.5 µM, an IC50 [2] of 4.8 µM and an IC50 [3] of 20.5 µM. The IC50 [4] was 4.8 µM and the IC50 [5] was 0.002 µM.
For COc1cc2c(c(OC)c1OC)-c1c(oc3c(OC)c(OC)c(OC)cc13)C2=O, the IC50 [1] was 50 µM, the IC50 [2] was ≥ 250 µM and the IC50 [3] was ≥ 250 µM. It also gave an IC50 [4] of 62.5 µM and an IC50 [5] of 112 µM.
With COc1cc(OC)c(C2CC(=O)c3cc(OC)c(OC)c(OC)c32)c(OC)c1 (centres undefined) the Activity [6] was “Toxic”, the IC50 [1] was 211 µM and the IC50 [2] was 1.49 µM. It also gave an IC50 [3] of 12.9 µM, an IC50 [4] of 0.022 µM and an IC50 [5] of 226 µM.
With COc1cc(C2CCc3cc(OC)c(OC)c(OC)c32)cc(OC)c1OC (centres undefined) the IC50 [1] was ≥ 250 µM, the IC50 [2] was 89.7 µM and the IC50 [3] was ≥ 250 µM. The IC50 [4] was 154 µM and the IC50 [5] was 115 µM.
